One data set concerns the target T1, COMT in HLS9 (Homo sapiens, UniProt P21964).
T1 sequence (P21964 51-271 limits assumed): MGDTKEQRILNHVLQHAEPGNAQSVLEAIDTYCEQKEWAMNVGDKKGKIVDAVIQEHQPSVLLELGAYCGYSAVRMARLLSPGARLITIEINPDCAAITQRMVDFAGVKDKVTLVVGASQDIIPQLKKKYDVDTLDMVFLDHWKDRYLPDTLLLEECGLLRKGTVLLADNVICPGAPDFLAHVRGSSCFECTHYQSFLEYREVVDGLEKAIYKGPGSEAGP
The experiment in a line: Kinetic analysis of 3-BTD methylation in human liver S9. Type of data set: in vitro ADME, humans. The following applies: formation of 3-BTMD in HLS9; Vmax/Km.

The target in data set [1] is T2, COMT in DLS9 (Canis lupus familiaris, UniProt Q60F99).
T2 sequence (Q60F99 1-221): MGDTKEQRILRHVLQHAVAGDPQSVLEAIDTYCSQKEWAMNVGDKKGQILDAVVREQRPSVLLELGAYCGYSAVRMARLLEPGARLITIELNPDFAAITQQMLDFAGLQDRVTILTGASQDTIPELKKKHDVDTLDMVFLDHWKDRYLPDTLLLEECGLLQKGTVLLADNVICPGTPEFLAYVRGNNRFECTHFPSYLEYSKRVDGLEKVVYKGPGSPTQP
The experiment in a line: Kinetic analysis of 3-BTD methylation in dog liver S9. Type of data set: in vitro ADME, beagle dogs. The following applies: formation of 3-BTMD in DLS9; Vmax/Km.

The target of data set [2] is T3, COMT in MLS9 (Mus musculus, UniProt O88587).
T3 sequence (O88587 44-265 limits assumed): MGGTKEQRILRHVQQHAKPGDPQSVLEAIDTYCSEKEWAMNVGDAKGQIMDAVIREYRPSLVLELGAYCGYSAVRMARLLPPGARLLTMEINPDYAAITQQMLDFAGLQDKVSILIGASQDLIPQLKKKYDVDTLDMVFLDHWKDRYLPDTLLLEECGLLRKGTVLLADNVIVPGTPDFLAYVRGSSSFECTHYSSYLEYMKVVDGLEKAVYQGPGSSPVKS
The data set is described as follows: Kinetic analysis of 3-BTD methylation in mouse liver S9. The following applies: formation of 3-BTMD in MLS9; Vmax/Km. Type of data set: in vitro ADME, ICR/CD-1 mice.

The target in a further data set is T4, COMT in RLS9 (Rattus norvegicus, UniProt P22734).
T4 sequence (P22734 44-264 limits assumed): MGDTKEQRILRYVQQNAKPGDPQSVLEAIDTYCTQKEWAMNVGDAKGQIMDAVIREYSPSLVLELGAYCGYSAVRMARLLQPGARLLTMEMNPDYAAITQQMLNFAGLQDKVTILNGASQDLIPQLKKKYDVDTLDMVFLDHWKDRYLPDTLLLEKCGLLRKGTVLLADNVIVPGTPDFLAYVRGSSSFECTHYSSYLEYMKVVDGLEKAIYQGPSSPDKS
The data set is described as follows: Kinetic analysis of 3-BTD methylation in rat liver S9. It counts as in vitro ADME, Sprague-Dawley rats. As to conditions: formation of 3-BTMD in RLS9; Vmax/Km.

For data set [3], the target named is T5, COMT in GpLS9 (Cavia porcellus, UniProt A0A286XRD6).
T5 sequence (A0A286XRD6 1-270): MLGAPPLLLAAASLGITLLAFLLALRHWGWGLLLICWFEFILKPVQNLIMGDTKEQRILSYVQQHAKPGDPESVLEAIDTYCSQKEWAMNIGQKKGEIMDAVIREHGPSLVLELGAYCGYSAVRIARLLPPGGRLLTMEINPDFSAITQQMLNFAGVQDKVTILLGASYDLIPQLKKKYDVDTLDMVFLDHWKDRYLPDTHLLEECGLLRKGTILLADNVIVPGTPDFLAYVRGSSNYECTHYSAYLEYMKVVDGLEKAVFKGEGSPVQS
The data set is described as follows: Kinetic analysis of 3-BTD methylation in guinea pig liver S9. It counts as in vitro ADME, Dunkin-Hartley guinea pigs. As to conditions: formation of 3-BTMD in GpLS9; Vmax/Km.

The target in data set [4] is T6, COMT in RaLS9 (Oryctolagus cuniculus, UniProt A0A5F9DQ59).
T6 sequence (A0A5F9DQ59 1-268): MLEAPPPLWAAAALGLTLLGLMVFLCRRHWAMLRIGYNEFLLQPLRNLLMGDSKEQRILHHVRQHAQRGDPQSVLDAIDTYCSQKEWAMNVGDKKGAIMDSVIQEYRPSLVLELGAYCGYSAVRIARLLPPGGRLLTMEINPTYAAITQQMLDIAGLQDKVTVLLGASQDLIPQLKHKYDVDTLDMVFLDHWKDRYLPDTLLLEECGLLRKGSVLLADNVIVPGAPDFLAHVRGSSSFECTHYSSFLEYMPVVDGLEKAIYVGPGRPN
Type of data set: in vitro ADME, New Zealand rabbits. As to conditions: formation of 3-BTMD in RaLS9; Vmax/Km.

Data set [5] has as its target T2, COMT in DLS9. The experiment in a line: Chemical inhibition assay of 3-BTD methylation in dog liver S9. It counts as biochemical, beagle dogs.
The target in data set [6] is T5, COMT in GpLS9. The experiment in a line: Chemical inhibition assay of 3-BTD methylation in guinea pig liver S9. It counts as biochemical, Dunkin-Hartley guinea pigs.
Data set [7] relates to COMT in RaLS9.
For data set [8], the system named is mammalian COMT in liver S9. As to conditions: tolcapone 1000 nM, liver S9 from all the test species.
Data set [9] addresses T3, COMT in MLS9. The data set is described as follows: biochemical.
The target in data set [10] is T6, COMT in RaLS9. The data set is described as follows: biochemical.
For a further data set, the target named is T7, COMT in CyLS9 (Macaca fascicularis, UniProt A0A7N9CL08).
T7 sequence (A0A7N9CL08 1-274): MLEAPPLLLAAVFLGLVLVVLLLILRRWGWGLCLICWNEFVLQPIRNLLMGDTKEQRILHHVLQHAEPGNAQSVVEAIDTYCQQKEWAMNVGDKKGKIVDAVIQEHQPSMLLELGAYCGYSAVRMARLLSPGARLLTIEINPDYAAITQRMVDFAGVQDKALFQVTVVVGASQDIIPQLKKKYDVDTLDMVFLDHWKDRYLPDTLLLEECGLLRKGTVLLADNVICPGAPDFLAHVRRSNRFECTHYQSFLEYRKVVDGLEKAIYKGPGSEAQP
The experiment in a line: Chemical inhibition assay of 3-BTD methylation in cynomolgus monkey liver S9.

`O=c1oc2c(O)c(O)ccc2cc1-c1nc2ccccc2s1` [3-BTD, 3-(benzo[d]thiazol-2-yl)-7,8-dihydroxy-2H-chromen-2-one]: the Clint at COMT in HLS9 is 112 µL/min/mg; on COMT in DLS9 [1], 627 µL/min/mg; on COMT in MLS9 [2], 523 µL/min/mg; on COMT in RLS9 it was 763 µL/min/mg; on COMT in GpLS9 [3] it was 191 µL/min/mg; at COMT in RaLS9 [4], 235 µL/min/mg.
Consider `Cc1ccc(C(=O)c2cc(O)c(O)c([N+](=O)[O-])c2)cc1` [tolcapone], for which the IC50 (commonly the midpoint of a concentration-inhibition curve) was found to be 20.8 ± 2.7 nM at COMT in DLS9 [5]; 108 ± 7.1 nM against COMT in GpLS9 [6]; 29 ± 3.9 nM on COMT in MLS9 [9]; 117 ± 10.3 nM against COMT in RaLS9 [10]; 18.7 ± 3 nM against COMT in CyLS9 (CyLS9 0.2 mg ml^−1, 3-BTD (1 μM) 8-O-methylation as probe reaction, mean ± S.E.). Also, the “inhibitory potency (IC50) in animal liver S9 versus HLS9” value was 6.9 fold in the data set on COMT in RaLS9 [7] and 1.1 fold against COMT in CyLS9 (CyLS9 versus HLS9). Moreover, in data set [8], the “inhibition of mammalian COMT-mediated 3-BTD methylation” value is given as “strongly inhibit”.

These data come from publication PMC9080226 (RSC Advances, 2018).
